Measurements published in patent US20090312349A1, “ANTI-INFLAMMATORY MEDICAMENTS” (priority 2004, published 2009).

Biological target: T1, phospho p-38 alpha kinase (Homo sapiens, UniProt Q16539)
T1 construct: purchased Panvera
Test: P-38 alpha kinase assay (spectrophotometric, pyruvate kinase/lactate dehydrogenase coupled)
Type: biochemical
Settings: Table 5; for IC50: assay not named, read-out: uM
Protocol: In this assay, the oxidation of NADH was continuously measured spectrophometrically. […] The reaction was initiated by adding ATP. The absorption at 340 nm was monitored continuously for up to 4 hours at 30° C. on Polarstar Optima plate reader (BMG). The kinase activity (reaction rate) was calculated from the slope at the time frame from 1.5 h to 2 h.
For inhibition determinations, test compounds were incubated with the reaction mixture for ˜5 min before adding ATP to start the reaction. […] IC50 values were calculated from a series of % inhibition values determined at a range of concentrations of each inhibitor using Prism to process the data and fit inhibition curves. Generally, the rates obtained at the time frame of 1.5 h to 2 h were used for these calculations.

T1 sequence (Q16539 whole entry): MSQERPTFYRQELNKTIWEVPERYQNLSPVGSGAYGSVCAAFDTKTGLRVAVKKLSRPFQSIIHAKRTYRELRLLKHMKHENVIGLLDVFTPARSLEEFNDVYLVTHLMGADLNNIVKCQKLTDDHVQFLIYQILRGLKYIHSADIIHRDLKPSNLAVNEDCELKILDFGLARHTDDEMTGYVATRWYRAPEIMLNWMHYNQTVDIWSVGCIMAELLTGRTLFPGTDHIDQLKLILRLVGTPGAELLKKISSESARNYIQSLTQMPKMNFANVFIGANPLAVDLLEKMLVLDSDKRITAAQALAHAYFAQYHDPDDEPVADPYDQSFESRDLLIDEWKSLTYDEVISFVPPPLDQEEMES

Compound CCOC(=O)c1ccc(-n2nc(C(C)C)cc2NC(=O)Nc2ccc(Cl)cc2)cc1 [Example 334, ethyl 4-{5-[3-(4-chlorophenyl)ureido]-3-isopropyl-1H-pyrazol-1-yl}benzoate] has an IC50 of 2.2 µM.
In the case of CC(C)c1cc(NC(=O)Nc2ccc(Cl)cc2)n(-c2ccc(CO)cc2)n1 [Example 335, 1-(4-chlorophenyl)-3-{1-[4-(hydroxymethyl)phenyl]-3-isopropyl-1H-pyrazol-5-yl}-urea], the IC50 is reported as 0.014 µM.
CCOC(=O)c1cccc(-n2nc(C(F)(F)F)cc2NC(=O)Nc2cccc3ccccc23)c1 [Example 336] was tested, and the “% @ concentration, uM” value (@ 10 uM) was 27% @ 10.
With CC(C)(O)c1cccc(-n2nc(C(F)(F)F)cc2NC(=O)Nc2cccc3ccccc23)c1 [Example 337] the “% @ concentration, uM” value (@ 10 uM) was 8% @ 10.
CCOC(=O)c1ccc(-n2nc(C(F)(F)F)cc2NC(=O)Nc2ccc(Cl)cc2)cc1 [Example 338, ethyl 4-{5-[3-(4 chlorophenyl)ureido]-3-(trifluoromethyl)-1H-pyrazol-1-yl}benzoate] was tested, and the “% @ concentration, uM” value (@ 2 uM) was 7% @ 2.
In the case of O=C(Nc1ccc(Cl)cc1)Nc1cc(C(F)(F)F)nn1-c1ccc(CO)cc1 [Example 339, 1-(4-chlorophenyl)-3-{3-(trifluoromethyl)-1-[4-(hydroxyl-methyl)phenyl]-1H-pyrazol-5-yl}urea], the “% @ concentration, uM” value (@ 2 uM) is reported as 9% @ 2.
CCOC(=O)c1cccc(-n2nc(C)cc2NC(=O)Nc2cccc3ccccc23)c1 [Example 340, ethyl 3-{3-methyl-5-[3-(naphthalen-1-yl)ureido]-1H-pyrazol-1-yl}benzoate] was tested, and the “% @ concentration, uM” value (@ 10 uM) was 31% @ 10.
CCOC(=O)c1cccc(-n2nc(C)cc2NC(=O)Nc2cccc(Cl)c2Cl)c1 [Example 342, ethyl 3-{5-[3-(2,3-dichlorophenyl)ureido]-3-methyl-1H-pyrazol-1-yl}benzoate] showed an IC50 of 1 µM.
With CCOC(=O)c1ccc(-n2nc(C)cc2NC(=O)Nc2ccc(Cl)cc2)cc1 [Example 344, ethyl 4-{5-[3-(4-chlorophenyl)ureido]-3-methyl-1H-pyrazol-1-yl}benzoate] the IC50 was 0.18 µM.
Cc1cc(NC(=O)Nc2ccc(Cl)cc2)n(-c2ccc(CO)cc2)n1 [Example 345, 1-(4-chlorophenyl)-3-{1-[4-(hydroxymethyl)phenyl]-3-methyl-1H-pyrazol-5-yl}urea] showed an IC50 of 0.27 µM.
CCOC(=O)c1ccc(-n2nc(C)cc2NC(=O)Nc2cccc(Cl)c2Cl)cc1 [Example 346, ethyl 4-{5-[3-(2,3-dichlorophenyl)ureido]-3-methyl-1H-pyrazol-1-yl}benzoate] was tested, and the “% @ concentration, uM” value (@ 0.1 uM) was 19% and the “% @ concentration, uM” value (@ 1 uM) was 63%.
For Cc1cc(NC(=O)Nc2cccc(Cl)c2Cl)n(-c2ccc(CO)cc2)n1 [Example 347, 1-(2,3-dichlorophenyl)-3-{1-[4-(hydroxymethyl)phenyl]-3-methyl-1H pyrazol-5-yl}urea], the “% @ concentration, uM” value (@ 0.1 uM) was 8% and the “% @ concentration, uM” value (@ 1 uM) was 31%.
Cc1cc(NC(=O)Nc2cccc3ccccc23)n(-c2ccc(C(O)C(F)(F)F)cc2)n1 (stereo not drawn) [Example 348, 1-{3-methyl-1-[4-(2,2,2-trifluoro-1-hydroxyethyl)phenyl]-1H-pyrazol-5-yl}-3-(naphthalen-1-yl)urea] was tested, and the “% @ concentration, uM” value (@ 0.1 uM) was 17% and the “% @ concentration, uM” value (@ 1 uM) was 47%.
With CC(C)c1cc(NC(=O)Nc2cccc3ccccc23)n(-c2cccc(C=O)c2)n1 [Example 350, 1-[1-(3-formylphenyl)-3-isopropyl-1H-pyrazol-5-yl]-3-(naphthalen-1-yl)urea] the “% @ concentration, uM” value (@ 0.1 uM) was 39% and the “% @ concentration, uM” value (@ 1 uM) was 64%.
Compound O=C(Nc1cccc(Cl)c1)Nc1cc(-c2ccccc2)nn1-c1cccc(CO)c1 [Example 352, 1-{3-phenyl-1-[3-(hydroxymethyl)phenyl]-1H-pyrazol-5-yl}-3-(3-chlorophenyl)urea] has an IC50 of 0.043 µM.
In the case of O=C(Nc1cccc(C(F)(F)F)c1)Nc1cc(-c2ccccc2)nn1-c1cccc(CO)c1 [Example 354, 1-{3-phenyl-1-[3-(hydroxymethyl)phenyl]-1H-pyrazol-5-yl}-3-(3-trifluoromethylphenyl)urea], the IC50 is reported as 0.11 µM.
With COc1cccc(NC(=O)Nc2cc(-c3ccccc3)nn2-c2cccc(CO)c2)c1 [Example 355, 1-{3-phenyl-1-[3-(hydroxymethyl)phenyl]-1H-pyrazol-5-yl}-3-(3-methoxyphenyl)urea] the IC50 was 0.042 µM.
Work on CCOC(=O)c1ccc(-n2nc(C(C)(C)C)cc2NC(=O)Nc2cccc3ccccc23)cc1 [Example 357, ethyl 4-{3-t-butyl-5-[3-(naphthalen-1-yl)ureido]-1H-pyrazol-1-yl}benzoate] yielded an IC50 of 0.13 µM.
In the case of CC(C)(C)c1cc(NC(=O)Nc2cccc3ccccc23)n(-c2ccc(CO)cc2)n1 [Example 358, 1-{3-t-butyl-1-[4-(hydroxymethyl)phenyl]-1H-pyrazol-5-yl}-3-(naphthalen-1-yl)urea], the IC50 is reported as 0.1 µM.
For CC(O)c1ccc(-n2nc(C(C)(C)C)cc2NC(=O)Nc2cccc3ccccc23)cc1 (stereo not drawn) [Example 360, 1-{3-t-butyl 1-[4-(1-hydroxyethyl)phenyl]-1H-pyrazol-5-yl}-3-(naphthalen-1-yl)urea], the IC50 was 0.39 µM.
C#CC(O)c1ccc(-n2nc(C(C)(C)C)cc2NC(=O)Nc2cccc3ccccc23)cc1 (stereo not drawn) [Example 361, 1-{3-t-butyl-1-[4-(1-hydroxyprop-2-ynyl)phenyl]-1H-pyrazol-5-yl}-3-(naphthalen-1-yl)urea] showed an IC50 of 0.87 µM.
With CC(C)(C)c1cc(NC(=O)Nc2cccc(Cl)c2Cl)n(-c2ccc(CO)cc2)n1 [Example 363, 1-{3-t-butyl-1-[(hydroxymethyl)phenyl]-1H-pyrazol-5-yl}-3-(2,3-dichloro-phenyl)urea] the IC50 was 0.19 µM.
Work on CC(C)(C)c1cc(NC(=O)Nc2cccc(Cl)c2Cl)n(-c2ccc(C(C)(C)O)cc2)n1 [Example 364, 1-{3-t-butyl-1-[4-(2-hydroxypropan-2-yl)phenyl]-1H-pyrazol-5-yl}-3-(2,3-dichlorophenyl)urea] yielded an IC50 of 0.01 µM.
With CC(C)(C)c1cc(NC(=O)Nc2cccc(Cl)c2Cl)n(-c2ccc(C(=O)O)cc2)n1 [Example 365, 4{-3-t-butyl-5-[3-(2,3-dichlorophenyl)ureido]-1H-pyrazol-1-yl}benzoic acid] the IC50 was 0.007 µM.
With CCOC(=O)c1cccc(-n2nc(C(C)(C)C)cc2NC(=O)Nc2cccc3ccccc23)c1 [Example 366, ethyl 3-{3-t-butyl-5-[3-(naphthalen-1-yl)ureido]-1H-pyrazol-1-yl}benzoate] the “% @ concentration, uM” value (@ 10 uM) was 53% @ 10.
CC(C)(C)c1cc(NC(=O)Nc2cccc3ccccc23)n(-c2cccc(CO)c2)n1 [Example 367, 1-{3-t-butyl-1-[3-(hydroxymethyl)phenyl]-1H-pyrazol-5-yl)-3-(naphthalen-1-yl)-urea] was tested, and the “% @ concentration, uM” value (@ 10 uM) was 85% @ 10.
CC(C)(C)c1cc(NC(=O)Nc2cccc(Cl)c2Cl)n(-c2cccc(CO)c2)n1 [Example 372, 1-[3-t-butyl-1-(3-hydroxymethyl-phenyl)-1H-pyrazol-5-yl]-3-(2,3-dichlorophenyl)-urea] gave an IC50 of 1.46 µM.
Compound CC(C)(C)c1cc(NC(=O)Nc2cccc(Cl)c2Cl)n(-c2cccc(C(=O)O)c2)n1 [Example 374, 3-{3-t-butyl-5-[3-(2,3-dichlorophenyl)ureido]-1H-pyrazol-1-yl}benzoic acid] has an IC50 of 0.037 µM.
CC(C)(C)c1cc(NC(=O)Nc2ccc(Cl)cc2)n(-c2cccc(CO)c2)n1 [Example 376] showed an IC50 of 0.48 µM.
Work on CC(C)(C)c1cc(NC(=O)Nc2ccc(Cl)cc2)n(-c2cccc(CN3C(=O)NC(=O)C3=O)c2)n1 [Example 378, 1-{3-t-butyl-2-{3-[(2,4,5-trioxoimidazolidin-1-yl)methyl]phenyl}-1H-pyrazol-3-yl}-3-(4-chlorophenyl)urea] yielded an IC50 of 0.4 µM.
In the case of CC(C)(C)c1cc(NC(=O)Nc2ccc(Cl)cc2)n(-c2cccc(CN3C(=O)C(=O)NS3(=O)=O)c2)n1 [Example 380, 1-{5-t-butyl-2-[3-(1,1,3,4-tetraoxo-1λ^6-[1,2,5]thiadiazolidin-2-ylmethyl)phenyl]-2H-pyrazol-3-yl}-3-(4-chlorophenyl)urea], the IC50 is reported as 2 µM.
In the case of CC(C)(C)c1cc(NC(=O)Nc2cccc3ccccc23)n(-c2cccc(CNC(=O)N3CCOCC3)c2)n1 [Example 382, 1-(3-t-butyl-1-{3-[(morpholine-4-carboxamido)methyl]phenyl}-1H-pyrazol-5-yl)-3-(naphthalen-1-yl)urea], the IC50 is reported as 0.88 µM.
With CC(C)(C)c1cc(NC(=O)Nc2cccc3ccccc23)n(-c2cccc(CNC(=O)N3CCCC3)c2)n1 [Example 383, 1-(3-t-butyl-1-{3-[(pyrrolidine-1-carboxamido)methyl]phenyl}-1H-pyrazol-5-yl)-3-(naphthalen-1-yl)urea] the IC50 was 0.1 µM.
In the case of CN(C)C(=O)NCc1cccc(-n2nc(C(C)(C)C)cc2NC(=O)Nc2cccc3ccccc23)c1 [Example 384, 1-{3-t-butyl-1-[3-(3,3-dimethylureidomethyl)phenyl]-1H-pyrazol-5-yl}-3-(naphthalen 1-yl)urea], the “% @ concentration, uM” value (@ 1 uM) is reported as 72% and the “% @ concentration, uM” value (@ 10 uM) is reported as 96%.
CC(C)(C)c1cc(NC(=O)Nc2ccc(Cl)cc2)n(-c2cccc(CNC(=O)N3CCCCC3)c2)n1 [Example 385, 1-(3-t-butyl-1-{3-[(piperidine-1-carboxamido)methyl]phenyl}-1H-pyrazol-5-yl)-3-(4-chlorophenyl)urea] gave an IC50 of 0.03 µM.
With CC(C)(C)c1cc(NC(=O)Nc2ccc(Cl)cc2)n(-c2cccc(CNC(=O)N3CCOCC3)c2)n1 [Example 386, 1-(3-t-butyl-1-{3-[(morpholine-4-carboxamido)methyl]phenyl}-1H-pyrazol-5-yl)-3-(4-chlorophenyl)urea] the IC50 was 0.114 µM.
For CC(C)(C)c1cc(NC(=O)Nc2ccc(Cl)cc2)n(-c2cccc(CNC(=O)N3CCCC3)c2)n1 [Example 387, 1-(3-r-butyl-1-{3-[(pyrrolidine-1-carboxamido)methyl]phenyl}-1H-pyrazol-5-yl)-3-(4-chlorophenyl)urea], the IC50 was 4.45 µM.
